Experimental data published in patent US20050261162A1, “Pharmaceutical composition for preventing and treating cancer and treating an inflammation” (priority 2001, published 2005).

System: COX-2
Assay: Inhibition of COX-2 expression induced by TPA in mouse skin (western blotting)
Type: in vivo, ICR mice
Conditions: topical pretreatment 30 min before TPA 10 nmol; skin taken 4 hr later
Procedure: It is known that the expression of COX-2 increases in mouse skin treated with TPA. Therefore, the effect of xanthorrhizol on COX-2 expression induced by TPA was measured as follows on the basis of this fact.
Female ICR mice of about 5 weeks of age were purchased from the Daehan Experimental Animal Center (Seoul, Korea). Mice were kept on a 12 h light/dark cycle.
The dorsal region of mice was shaved with an electric clipper. 2 days later, xanthorrhizol dissolved in 0.2 ml acetone was topically applied on mouse skin followed by topical application of TPA (10 nmol) dissolved in 0.2 ml acetone after 30 min. Mice were sacrificed by cervical dislocation 4 hr later. The skin was excised and the fat was removed. Fat-free skin was immediately placed in liquid nitrogen and pulverized in mortar.
Pulverized mouse skin was lysed in 400 μl of lysis buffer [150 mM NaCl, 0.5% Triton X-100, 50 mM tris-HCl, pH 7.4, 20 mM EGTA, 1 mM DTT, 1 mM Na3VO4, protease inhibitor cocktail tablet] for 30 min on ice. Lysates were centrifuged and total protein in supernatant was quantified by Bio-Rad protein assay. Aliquots of supernatant containing 30 μg protein were boiled in SDS sample loading buffer for 5 min before electrophoresis on a 12% SDS-polyacrylamide gel. […]

## CC(C)=CCC[C@@H](C)c1ccc(C)c(O)c1 [xanthorrhizol]
  expression of COX-2 induced by TPA: decreased by pretreatment with xanthorrhizol in a dose-dependent manner
